Patent US20250127772A1, “SPECIFIC TETRADENTATE COPPER CHELATORS FOR THE TREATMENT OF WILSON'S DISEASE” (GUANGDONG UNIVERSITY OF TECHNOLOGY, priority 2023, published 2025)

Tests used:
[1] = test system: ceruloplasmin (CP); assay: Serum ceruloplasmin by TMT LC-MS/MS in treated TX mice; format: in vivo, mouse; details: for CP level compared with control mice: serum of TX mice
Experimental: (§1) In order to confirm the positive role of TDMQ20 in the treatment of TX mice, we performed proteomic experiments. Samples from three mice of each group were depicted in Table 1, The samples were treated with TMT (Tandem Mass Tag) and detected by quantitative LC-MS/MS, then the data were analyzed with ProteomeDiscoverer 2.4.1.15 (ThermoFisher Scientific). Confidence proteins were screened according to the criteria of Sequest program score greater than 0 and number of unique peptides greater than or equal to 1, and blank values were removed.
The concentration of ceruloplasmin (CP), that contains the most part of blood copper, was measured by TMT LC-MS/MS in the serum of WD mice. […] The CP level was equal (25 mg/kg) or higher (50 mg/kg) than that observed in control mice. Since the level of CP is considered as a significant parameter in the clinical control of human Wilson's disease, the reversal of the CP impairment upon treatment by TDMQ20 confirms that this drug has a very good profile as drug-candidate for the treatment of Wilson's disease.

[2] = test system: hepatic DEPs; assay: Hepatic differentially expressed proteins (TMT LC-MS/MS) in treated TX mice; format: in vivo, mouse
Experimental: as §1
Other differentially expressed proteins (DEPs) were screened at p<0.05 in the WD mouse group compared to the control group. […] Results are reported in Table 3 and 4 for hepatic and serum proteins, respectively.

[3] = liver, 25 mg/kg/day, DEP down-regulated in WD
[4] = liver, 25 mg/kg/day, DEP up-regulated in WD
[5] = liver, 50 mg/kg/day, DEP down-regulated in WD
[6] = liver, 50 mg/kg/day, DEP up-regulated in WD

## CN(C)CCNCCc1ccc2c(Cl)cc(Cl)c(N)c2n1 [TDMQ20]
[1]; TDMQ20 at 25 or 50 mg/kg
  level of CP compared to WD mice: significantly increased
[1]; TDMQ20 25 mg/kg
  CP level compared with control mice: equal
[1]; TDMQ20 50 mg/kg
  CP level compared with control mice: higher
[2]; TDMQ20 50 mg/kg
  hepatic DEPs TDMQ20-H/control ratio: ~1
[2]; TDMQ20 at 25 or 50 mg/kg
  hepatic DEPs after treatment: reversed to normal values
[2]; [3]
  TDMQ20-M/control fold change: 2-Oxo-4-hydroxy-4-caboxy-5-ureidoimidazoline decarboxylase (Urad): 0.93
  TDMQ20-M/control fold change: ATP-citrate synthase (Acly): 0.86
  TDMQ20-M/control fold change: Alcohol deshydrogenase class-3 (Adh5): 0.89
  TDMQ20-M/control fold change: Aspartate-tRNA ligase, cytoplasmic (Dars1): 1.03
  TDMQ20-M/control fold change: Charged multivesicular body protein 7 (Chmp7): 1.04
  TDMQ20-M/control fold change: Cytochrome P450 2C70 (Cyp2c70): 0.85
  TDMQ20-M/control fold change: Desmin (Des): 0.88
  TDMQ20-M/control fold change: Mesencephalic astrocyte-derived neurotrophic factor (Manf): 0.94
  TDMQ20-M/control fold change: Nicotinamide/nicotinic acid mononucleotide adenylyltransferase 3 (Nmnat3): 0.97
  TDMQ20-M/control fold change: Progranulin (Gm): 1.05
  TDMQ20-M/control fold change: Putative phospholipase B-like 2 (Plbd2): 0.98
  TDMQ20-M/control fold change: Pyridoxine-5′-phosphate oxidase (Pnpo): 1.01
  TDMQ20-M/control fold change: Ribosome biogenesis protein BOP1 (Bop1): 1.08
  TDMQ20-M/control fold change: Triosephosphate isomerase (Tpi1): 0.85
[2]; [4]
  TDMQ20-M/control fold change: 28 kDa heat- and acid-stable phosphoprotein (Pdap1): 1.15
  TDMQ20-M/control fold change: AN1-type zinc finger protein 6 (Zfand6): 1.09
  TDMQ20-M/control fold change: ATP synthase subunit a (Mtatp6): 1.04
  TDMQ20-M/control fold change: Afadin (Afdn): 1.07
  TDMQ20-M/control fold change: Agmatinase, mitochondrial (Agmat): 1.15
  TDMQ20-M/control fold change: Alanine glyoxylate aminotransferase (Agxt): 1.18
  TDMQ20-M/control fold change: Alpha-1-antitrypsin-1-2 (Serpina1b): 1.09
  TDMQ20-M/control fold change: Cyclin-dependent kinase inhibitor 1B (Cdkn1b): 1.13
  TDMQ20-M/control fold change: Epsin-1 (Epn1): 1.05
  TDMQ20-M/control fold change: Exosome complex exonuclease RRP44 (Dis3): 1.16
  TDMQ20-M/control fold change: Histone H2A.V: 1.14
  TDMQ20-M/control fold change: Histone H2B type 1-H (H2bc9): 1.05
  TDMQ20-M/control fold change: Histone H4 (H4c16): 1.12
  TDMQ20-M/control fold change: Mitochondrial dicarboxylase carrier (Slc25a10): 1.10
  TDMQ20-M/control fold change: Mitochondrial outer membrane protein SLC25A46 (Slc25a46): 1.10
  TDMQ20-M/control fold change: NADPH adrenodoxin oxidoreductase, mitochondrial (Fdxr): 1.10
  TDMQ20-M/control fold change: OCIA domain-containing protein 1 (Ociad1): 1.14
  TDMQ20-M/control fold change: PRKC apoptosis WT1 regulator protein (Pawr): 1.10
  TDMQ20-M/control fold change: Peroxisomal membrane protein-2 (Pxmp2): 1.14
  TDMQ20-M/control fold change: Probable ATP-dependent RNA helicase DDX17 (Ddx17): 1.01
  TDMQ20-M/control fold change: Protein Hook homolog 1 (Hook1): 1.07
  TDMQ20-M/control fold change: Protein LYRIC (Mtdh): 0.85
  TDMQ20-M/control fold change: Protein scribble homolog (Scrib): 1.07
  TDMQ20-M/control fold change: Protein-glutamine gamma-glutamyltransferase K (Tgm1): 0.90
  TDMQ20-M/control fold change: Regucalcin (Rgn): 1.07
  TDMQ20-M/control fold change: Ribonuclease P protein subunit p30 (Rpp30): 1.20
  TDMQ20-M/control fold change: SET nuclear proto-oncogene (Set): 0.95
  TDMQ20-M/control fold change: Sideroflexin-5 (Sfxn5): 1.06
  TDMQ20-M/control fold change: Zinc transporter 10 (Slc30a10): 0.94
[2]; [5]
  TDMQ20-H/control fold change: 2-Oxo-4-hydroxy-4-caboxy-5-ureidoimidazoline decarboxylase (Urad): 0.96
  TDMQ20-H/control fold change: ATP-citrate synthase (Acly): 0.97
  TDMQ20-H/control fold change: Alcohol deshydrogenase class-3 (Adh5): 0.86
  TDMQ20-H/control fold change: Aspartate-tRNA ligase, cytoplasmic (Dars1): 1.13
  TDMQ20-H/control fold change: Charged multivesicular body protein 7 (Chmp7): 0.94
  TDMQ20-H/control fold change: Cytochrome P450 2C70 (Cyp2c70): 0.88
  TDMQ20-H/control fold change: Desmin (Des): 0.88
  TDMQ20-H/control fold change: Mesencephalic astrocyte-derived neurotrophic factor (Manf): 0.91
  TDMQ20-H/control fold change: Nicotinamide/nicotinic acid mononucleotide adenylyltransferase 3 (Nmnat3): 0.94
  TDMQ20-H/control fold change: Progranulin (Gm): 1.04
  TDMQ20-H/control fold change: Putative phospholipase B-like 2 (Plbd2): 0.99
  TDMQ20-H/control fold change: Pyridoxine-5′-phosphate oxidase (Pnpo): 0.90
  TDMQ20-H/control fold change: Ribosome biogenesis protein BOP1 (Bop1): 0.97
  TDMQ20-H/control fold change: Triosephosphate isomerase (Tpi1): 0.90
[2]; [6]
  TDMQ20-H/control fold change: 28 kDa heat- and acid-stable phosphoprotein (Pdap1): 1.10
  TDMQ20-H/control fold change: AN1-type zinc finger protein 6 (Zfand6): 0.91
  TDMQ20-H/control fold change: ATP synthase subunit a (Mtatp6): 0.91
  TDMQ20-H/control fold change: Afadin (Afdn): 1.05
  TDMQ20-H/control fold change: Agmatinase, mitochondrial (Agmat): 1.01
  TDMQ20-H/control fold change: Alanine glyoxylate aminotransferase (Agxt): 1.03
  TDMQ20-H/control fold change: Alpha-1-antitrypsin-1-2 (Serpina1b): 1.04
  TDMQ20-H/control fold change: Cyclin-dependent kinase inhibitor 1B (Cdkn1b): 1.10
  TDMQ20-H/control fold change: Epsin-1 (Epn1): 0.93
  TDMQ20-H/control fold change: Exosome complex exonuclease RRP44 (Dis3): 1.00
  TDMQ20-H/control fold change: Histone H2A.V: 1.19
  TDMQ20-H/control fold change: Histone H2B type 1-H (H2bc9): 1.07
  TDMQ20-H/control fold change: Histone H4 (H4c16): 1.15
  TDMQ20-H/control fold change: Mitochondrial dicarboxylase carrier (Slc25a10): 1.00
  TDMQ20-H/control fold change: Mitochondrial outer membrane protein SLC25A46 (Slc25a46): 1.11
  TDMQ20-H/control fold change: NADPH adrenodoxin oxidoreductase, mitochondrial (Fdxr): 1.04
  TDMQ20-H/control fold change: OCIA domain-containing protein 1 (Ociad1): 1.08
  TDMQ20-H/control fold change: PRKC apoptosis WT1 regulator protein (Pawr): 1.18
  TDMQ20-H/control fold change: Peroxisomal membrane protein-2 (Pxmp2): 0.98
  TDMQ20-H/control fold change: Probable ATP-dependent RNA helicase DDX17 (Ddx17): 1.11
  TDMQ20-H/control fold change: Protein Hook homolog 1 (Hook1): 0.94
  TDMQ20-H/control fold change: Protein LYRIC (Mtdh): 1.06
  TDMQ20-H/control fold change: Protein scribble homolog (Scrib): 1.09
  TDMQ20-H/control fold change: Protein-glutamine gamma-glutamyltransferase K (Tgm1): 0.84
  TDMQ20-H/control fold change: Regucalcin (Rgn): 0.91
  TDMQ20-H/control fold change: Ribonuclease P protein subunit p30 (Rpp30): 1.20
  TDMQ20-H/control fold change: SET nuclear proto-oncogene (Set): 1.01
  TDMQ20-H/control fold change: Sideroflexin-5 (Sfxn5): 0.96
  TDMQ20-H/control fold change: Zinc transporter 10 (Slc30a10): 0.9
